“Also recorded” adds a separate entry of the source.
Key:
[1] = system: SNI rats; experiment: spared nerve injury (SNI) model, dynamic plantar aesthesiometer; assay type: in vivo, rat; settings: for mechanical withdrawal threshold compared to untreated rats: summary statement, dose not stated
Description: Spared nerve injury (SNI) of the sciatic nerve and measurement of allodynia with the dynamic plantar aesthesiometer. SNI was performed according to the method of Decosterd and Woolf (2000). Rats were anaesthetized with sodium pentobarbital (50 mg/kg i.p.). The sciatic nerve was exposed at mid-thigh level […] to the trifurcation and freed of connective tissue; the three peripheral branches (sural, common peroneal, and tibial nerves) of the sciatic nerve were exposed without stretching nerve structures. Both tibial and common peroneal nerves were ligated and transected together. The sham procedure consisted of the same surgery without ligation and transection of the nerves. Fourteen days after SNI, mechanical allodynia was measured using the dynamic plantar aesthesiometer (Ugo Basile, Varese, Italy). Each rat was placed and allowed to move freely in one of the two compartments of the enclosure positioned on a metal grid surface. A mechanical stimulus was delivered to the plantar surface of the rat's hind paw through the metal grid by a steel filament (Von Frey-type), connected to a movable touch-stimulator unit exerting an increasing force of 3 g per second. The force inducing paw withdrawal was recorded to the nearest 0.1 g. Nociceptive responses for mechanical sensitivity (mechanical withdrawal threshold) were measured in grams before and after vehicle or drug administration by an experimenter blind to the treatments. A single trial at each time point was performed on the ipsilateral hind paw to SNI surgery for each rat. Nociceptive responses for mechanical sensitivity were expressed as mean±SEM (g). Groups of 6-7 rats per treatment were used, with each animal being used for one treatment only.
(§1) Statistical Analysis: Data analysis was done using SigmaPlot 12 (Systat Software, Inc.). Two-way ANOVA for repeated measures was used to analyze data from L5-L6 models using treatments (between) and testing time (within) as factors. One-way ANOVA was used to analyze AUC in the L5-L6 spinal nerves ligation model. One-way ANOVA was used for formalin and hot-plate tests. Post-hoc analyses were performed using Bonferroni t-test comparisons or Student-Newman-Keuls (SNK) test. All data are expressed as mean±Standard Error of the Mean (SEM). P<0.05 was considered significant.

[2] = molecular target: T1, human MT2 receptor (Homo sapiens, UniProt P49286); experiment: 2-[125I]iodomelatonin competition binding, human MT2 in CHO cells
T1 construct: expressed in transfected cells
T1 sequence (P49286 1-362): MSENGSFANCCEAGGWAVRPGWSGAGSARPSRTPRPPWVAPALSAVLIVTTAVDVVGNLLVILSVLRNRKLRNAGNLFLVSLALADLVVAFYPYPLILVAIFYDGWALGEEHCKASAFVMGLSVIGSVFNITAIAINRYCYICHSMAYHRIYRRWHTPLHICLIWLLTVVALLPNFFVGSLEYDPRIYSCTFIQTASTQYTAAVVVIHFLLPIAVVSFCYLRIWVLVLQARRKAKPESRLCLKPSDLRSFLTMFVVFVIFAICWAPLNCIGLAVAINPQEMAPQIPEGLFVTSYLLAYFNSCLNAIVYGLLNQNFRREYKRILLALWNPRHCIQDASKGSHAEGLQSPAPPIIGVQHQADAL

[3] = system: rats with L5-L6 spinal nerves ligation; experiment: L5-L6 spinal nerves ligature model, von Frey paw withdrawal threshold; assay type: in vivo, rat; settings: for AUC of the antiallodynic effect across 8 h: mean±SEM, VEH 36.24±1.8 g; for AUC antiallodynic effect compared with GBP 100 mg/kg / AUC antiallodynic effect compared with MLT 150 mg/kg: doses of 20 and 40 mg/kg; for tactile allodynia in L5-L6 nerve ligated rats / analgesic effect in allodynic rats: summary statement; for tactile allodynia in L5-L6 nerve ligated rats: hindpaw withdrawal threshold to mechanical stimulation; for analgesic effect in allodynic rats: hindpaw withdrawal threshold vs untreated allodynic rats
Description: Animals: Wistar rats (150-250 g, Charles-River Saint-Constant, Quebec, Canada) were used for the formalin test, hot plate test and L5-L6 spinal nerves ligature model. The animals were housed at constant room temperature and humidity under a 12 h light/dark cycle (lights on at 7 AM). Food and water were available ad libitum.
L5-L6 Spinal Nerves Ligature: Nerve injury results in abnormal pain perception, known as neuropathic pain, which is associated with hyperalgesia (high pain sensibility) and allodynia (pain perception induced by innocuous stimuli) (Campbell and Meyer, 2006). The rat model for neuropathic pain develop by Kim and Chung (Kim and Chung, 1992) was used in which the L5 and L6 spinal nerves were ligated and two weeks later allodynia was measured by paw stimulation with von Frey filaments. Briefly, animals were anesthetized with a mixture of ketamine/xylazine/acepromazine (i.p.). Following surgical preparation and exposure of the dorsal vertebral column, the left L5 and L6 spinal nerves were exposed and tightly ligated with 3.0 chromic catgut suture distal to the dorsal root ganglion. For sham-operated rats, the nerves were exposed but not ligated. The incisions were closed using 3.0 vicryl sutures, and the animals were allowed to recover for 13 days.
On day 14 after surgery, rats were singularly placed in a test chamber (clear plastic, wire mesh-bottomed cage) and allowed to acclimatize for 30-40 min. Von Frey filaments (Stoelting, Wood Dale, Ill., USA) were used to measure the 50% paw withdrawal threshold using the up and down method by (Chaplan et al., 1994). […] Lifting of the paw indicated a positive response and prompted the use of the next weaker filament, whereas absence of paw withdrawal after 5 s indicated a negative response and prompted the next filament of increasing weight. This paradigm continued for four more measurements after the initial change of the behavioral response, or until five consecutive negative (assigned a score of 15 g), or four consecutive positive (assigned a score of 0.25 g) responses. The resulting score were used to calculate the 50% response threshold by using the formula proposed by Dixon et al., 1980.
Allodynia was considered to be present when paw withdrawal thresholds were less than 4 g. (Chaplan et al., 1994). All nerve-ligated rats were verified to be allodynic, responding to a stimulus of less than 4 g. Rats without allodynia were excluded. Following the determination of the basal response, tactile allodynia was assessed at 0.5, 1, 2, 3, 4, 5, 6, 7 and 8 h post-administration for each treatment below described.
[…] […] Another group of rats received only the vehicle (VEH) consisting on a 70% DMSO/saline solution (0.9% NaCl). All treatments were administered in a single subcutaneous injection with a volume of 1 ml. Rats were tested at 0 h (basal withdrawal threshold) and 0.5, 1, 2, 3, 4, 5, 6, 7 and 8 h post-treatment administration.
as §1

[4] = molecular target: T2, human-cloned MT2 receptors (Homo sapiens, UniProt P49286); experiment: cAMP assay in CHO cells expressing human-cloned MT2 (functional activity); assay type: cell-based; settings: CHO cells
T2 construct: expressed in transfected cells
T2 sequence (P49286 1-362): T1 sequence (P49286 1-362)

[5] = molecular target: T3, human-cloned MT1 (Homo sapiens, UniProt P48039); experiment: impedance assay in CHO cells expressing human-cloned MT1 (functional activity); assay type: cell-based; settings: for activity for the MLT receptor subtype MT1 (in words): CHO cells; on MT1 Activity: key: A = ago0nist; PA = partial agonist; ANT = antagonits
T3 construct: expressed in transfected cells
T3 sequence (P48039 whole entry): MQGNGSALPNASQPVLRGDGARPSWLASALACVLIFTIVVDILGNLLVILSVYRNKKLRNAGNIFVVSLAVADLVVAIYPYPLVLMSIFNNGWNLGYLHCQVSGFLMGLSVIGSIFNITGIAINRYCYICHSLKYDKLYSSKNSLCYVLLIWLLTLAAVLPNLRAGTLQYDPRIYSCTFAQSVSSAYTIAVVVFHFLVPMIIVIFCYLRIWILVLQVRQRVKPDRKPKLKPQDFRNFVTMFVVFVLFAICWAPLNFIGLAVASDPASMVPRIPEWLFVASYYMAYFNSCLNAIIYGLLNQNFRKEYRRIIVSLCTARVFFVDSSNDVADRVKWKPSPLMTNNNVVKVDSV

[6] = 20 mg/kg s.c., at 3 h (5b) or 5 h (5p) post-administration
[7] = 40 mg/kg s.c., at 2 h (5b) or 5 h (5p) post-administration

| SMILES | reduction of the mechanical allodynia ([1]; 20 mg/kg s.c.) | reduction of the mechanical allodynia ([1]; 40 mg/kg s.c.) | mechanical withdrawal threshold compared to untreated rats [1] | AUC of the antiallodynic effect across 8 h ([3]; 5 mg/kg s.c.) [g] | AUC of the antiallodynic effect across 8 h ([3]; 10 mg/kg s.c.) [g] | duration of effect on paw withdrawal threshold, post-administration ([3]; 20 mg/kg s.c.) | reduction of the mechanical allodynia above the threshold (4 g) ([3]; 20 mg/kg s.c.) | start of increase of paw withdrawal threshold, post-administration ([3]; 20 mg/kg s.c.) [h] | highest increase in paw withdrawal threshold [3, 6] [% from basal] | AUC of the antiallodynic effect across 8 h ([3]; 20 mg/kg s.c.) [g] | duration of effect on paw withdrawal threshold, post-administration ([3]; 40 mg/kg s.c.) | reduction of the mechanical allodynia above the threshold (4 g) ([3]; 40 mg/kg s.c.) | start of increase of paw withdrawal threshold, post-administration ([3]; 40 mg/kg s.c.) [h] | highest increase in paw withdrawal threshold [3, 7] [% from basal] | AUC of the antiallodynic effect across 8 h ([3]; 40 mg/kg s.c.) [g] | AUC antiallodynic effect compared with GBP 100 mg/kg [3] | AUC antiallodynic effect compared with MLT 150 mg/kg [3] | tactile allodynia in L5-L6 nerve ligated rats [3] | analgesic effect in allodynic rats [3] | activity for the MLT receptor subtype MT2 (in words) [4] | also measured |
| --- | --- | --- | --- | --- | --- | --- | --- | --- | --- | --- | --- | --- | --- | --- | --- | --- | --- | --- | --- | --- | --- |
| CC(=O)NCCN(c1ccc(F)cc1)c1cccc(Br)c1 [5p, N-{2-[(3-Bromophenyl)-4-fluorophenylamino]ethyl}acetamide] | significant reduction of the mechanical allodynia | significant reduction of the mechanical allodynia | significant decrease in mechanical withdrawal threshold | 89.03 ± 6.33 | 127.75 ± 12.08 | up to 6 h | reduction of the mechanical allodynia | 1 | 394 | 245.9 ± 19.9 | up to 6 h | reduction of the mechanical allodynia | 1 | 427.65 | 230.33 ± 17.69 | comparable | greater antiallodynic effect | reduced allodynia; also recorded: reversed tactile allodynia | increased the analgesic effect | partial agonist activity | effect on mechanical allodynia compared with GBP 100 mg/kg, MLT 150 mg/kg and VEH ([1]; 20 mg/kg s.c.): greater than those produced by GBP; extent of reversal of mechanical allodynia ([1]; 20 and 40 mg/Kg s.c.): reversed almost completely mechanical allodynia; Ki ([2]; human MT2 stably expressed in CHO cells, calculated from IC50 by Cheng and Prusoff, read-out: MT2 pKi (converted)): 0.537 nM; duration of effect on paw withdrawal threshold, post-administration ([3]; 10 mg/kg s.c.): up to 3 h; start of increase of paw withdrawal threshold, post-administration ([3]; 10 mg/kg s.c.): 1 h; activity for the MLT receptor subtype MT1 (in words) [5]: antagonist; MT1 Activity ([5]; intrinsic activity, human MT1 in CHO cells): ANT |
| COc1cccc(N(CCNC(C)=O)c2ccccc2)c1 [5b, N-{2-[(3-Methoxyphenyl)-phenylamino]ethyl}acetamide] | significant reduction of the mechanical allodynia | significant reduction of the mechanical allodynia | significant decrease in mechanical withdrawal threshold | 81.11 ± 4.8 | 70.24 ± 4.23 | up to 5 h | reduction of the mechanical allodynia above the threshold | 1 | 419 | 219.12 ± 24.13 | ≤ 6 h | reduction of the mechanical allodynia above the threshold | 0.5 | 395 | 220.13 ± 13.65 | comparable | superior to MLT | reversed tactile allodynia; also recorded: reduced allodynia | increased the analgesic effect | partial agonist activity | MT2 affinity compared with melatonin [2]: better MT2 affinity than melatonin; MT2-selectivity ([2]; MT2 versus MT1): good MT2-selectivity; MT2 pKi ([2]; human MT2 stably expressed in CHO cells, calculated from IC50 by Cheng and Prusoff): 10.18; activity for the MLT receptor subtype MT1 (in words) [5]: partial agonist activity |
